From article PMC5488091, “Tellurite and Tellurate Reduction by the Aerobic Anoxygenic Phototroph Erythromonas ursincola, Strain KR99 Is Carried out by a Novel Membrane Associated Enzyme” (Microorganisms, 2017)
Like-named read-outs stand apart in the source and are kept apart here. Values belong to the molecule of their own block, whether it stands above or below them.

Experiments:
[1] = tested on: T1, tellurite reductase (membrane associated tellurite/tellurate reductase); assay: spectrophotometric tellurite reduction at […] nm; assay type: biochemical, Blastomonas ursincola; settings: electron donor; co-substrate tellurite; pH 7.0, 28 °C
T1 construct: native enzyme purified from Triton X-100 solubilised membranes of KR99; 117 kDa heterodimer (62 + 55 kDa, 1:1); MS nearest match GroEL of Blastomonas sp

[2] = tested on: T1, tellurite reductase (membrane associated tellurite/tellurate reductase); assay type: biochemical, Blastomonas ursincola; settings: co-substrate NADH (25 µL of 5 mM stock as printed), Tris HCl pH 7.0, 28 °C
[3] = target: tellurite reductase 55 kDa subunit of Erythromonas ursincola, strain KR99 (Erythromonas ursincola, strain KR99 (endogenous)); assay: SEC; endogenous enzyme co-purified from solubilised membranes; single band on 5% native PAGE; native mass by Superdex S-200 gel filtration in 20 mM Tris HCl pH 8.0; subunits by SDS-PAGE (12%) after boiling in 1% SDS with 2-mercaptoethanol

Km [1]: 81.5 µM
Molecule: NC(=O)C1=CN([C@@H]2O[C@H](COP(=O)(O)OP(=O)(O)OC[C@H]3O[C@@H](n4cnc5c(N)ncnc54)[C@H](O)[C@@H]3O)[C@@H](O)[C@H]2O)C=CC1 [NADH]

Molecule: O=[Te](=O)(O)O [tellurate]
Km ([2]; tellurate 0–5 mM): 1440 µM

Molecule: O=[Te](O)O [tellurite]
Km ([2]; tellurite 0–13 mM): 3360 µM

stoichiometry N [3]: 1
Molecule: tellurite reductase 62 kDa subunit of Erythromonas ursincola, strain KR99 (natural protein)
